Results: ChEMBL document CHEMBL1201862, “PubChem BioAssay data set” (2004)
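Cultured in 96-well plates, cells were exposed to test compound for 48 hours across five concentrations. At the GI50, growth is halved.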 Calls of active or inactive are those of the source. Rule as the data show it: active = GI50 up to about 1.1 µM and inactive = higher.

Assays:
Experiment in all cases: DTP human tumour cell line panel, 48 h
[1] = tested on: SF-268
[2] = tested on: LXFL 529
[3] = tested on: HT-29
[4] = tested on: NCI-H522
[5] = tested on: U-251
[6] = tested on: IGROV-1
[7] = tested on: HCC 2998
[8] = tested on: UACC-62
[9] = tested on: HCT-15
[10] = tested on: SF-295
[11] = tested on: SF-539
[12] = tested on: HL-60
[13] = tested on: CAKI-1
[14] = tested on: SNB-75
[15] = tested on: MDA-N
[16] = tested on: MCF7
[17] = tested on: RXF 393
[18] = tested on: NCI/ADR-RES
[19] = tested on: PC-3
[20] = tested on: DU-145

`CC(C)C(/C=C/c1ccccc1)=N\NC(=O)N/N=C(/C=C/c1ccccc1)C(C)C` was tested, and the GI50 [1] was 48 µM (inactive), the GI50 [2] was 23.2 µM (inactive) and the GI50 [3] was 26.5 µM (inactive). For the same molecule, the GI50 [4] was 17.1 µM (inactive), the GI50 [5] was 32.3 µM (inactive) and the GI50 [6] was 39.1 µM (inactive). The GI50 [7] was 16 µM (inactive), the GI50 [8] was 56.9 µM (inactive) and the GI50 [9] was 20.7 µM. For the same molecule, the GI50 [10] was 39.9 µM (inactive), the GI50 [11] was 31.1 µM (inactive) and the GI50 [12] was 15.2 µM (inactive). For the same molecule, the GI50 [13] was 6.98 µM (inactive) and the GI50 [14] was 25.8 µM (inactive).
With `FC(F)(F)c1nc2ccc(SSc3ccc4nc(C(F)(F)F)[nH]c4c3)cc2[nH]1` the GI50 [15] was 80.5 µM (inactive), the GI50 [16] was 35.7 µM (inactive) and the GI50 [1] was > 10 µM (inactive). The GI50 [17] was > 10 µM (inactive), the GI50 [18] was > 10 µM (inactive) and the GI50 [3] was > 10 µM (inactive). For the same molecule, the GI50 [19] was 36.6 µM (inactive), the GI50 [4] was 49 µM (inactive) and the GI50 [5] was 84.1 µM (inactive). The GI50 [6] was > 10 µM (inactive), the GI50 [7] was 38.3 µM (inactive) and the GI50 [8] was 73.8 µM (inactive). The GI50 [9] was 93.5 µM, the GI50 [20] was > 10 µM (inactive) and the GI50 [10] was 4.41 µM (inactive). The GI50 [11] was 41.8 µM (inactive), the GI50 [12] was 48.8 µM (inactive) and the GI50 [13] was > 10 µM (inactive). The GI50 [14] was > 10 µM (inactive).
With `Cc1cc(C(=O)NCCN(C)C)c2nc3ccccc3nc2c1` the GI50 [17] was 5.37 µM (inactive), the GI50 [2] was 8.3 µM (inactive) and the GI50 [3] was 2.67 µM (inactive). For the same molecule, the GI50 [4] was 16.6 µM (inactive), the GI50 [5] was 5.82 µM (inactive) and the GI50 [6] was 4.81 µM (inactive). For the same molecule, the GI50 [7] was 6.38 µM (inactive), the GI50 [8] was 6.32 µM (inactive) and the GI50 [9] was 2.9 µM. The GI50 [10] was 4.55 µM (inactive), the GI50 [11] was 4.31 µM (inactive) and the GI50 [12] was 3.41 µM (inactive). For the same molecule, the GI50 [14] was 4.52 µM (inactive).
`CC(C)(C)c1cc(OCc2nn3c(Cc4ccccc4)nnc3s2)c(Cl)cc1OCc1nn2c(Cc3ccccc3)nnc2s1` was tested, and the GI50 [15] was 36.5 µM (inactive), the GI50 [16] was 22.5 µM (inactive) and the GI50 [1] was 55.5 µM (inactive). For the same molecule, the GI50 [17] was 17.1 µM (inactive), the GI50 [18] was 39.3 µM (inactive) and the GI50 [3] was 23.3 µM (inactive). The GI50 [19] was 20.1 µM (inactive), the GI50 [4] was 23.5 µM (inactive) and the GI50 [5] was 21.8 µM (inactive). The GI50 [6] was 20.7 µM (inactive), the GI50 [7] was 53.6 µM (inactive) and the GI50 [8] was 24.1 µM (inactive). For the same molecule, the GI50 [9] was 19.6 µM, the GI50 [20] was 30.5 µM (inactive) and the GI50 [10] was 12.8 µM (inactive). The GI50 [11] was 55.5 µM (inactive), the GI50 [12] was 23.9 µM (inactive) and the GI50 [13] was 23.6 µM (inactive). For the same molecule, the GI50 [14] was 91 µM (inactive).
`N/N=C1\C(=O)N(Cc2ccccc2)C(=O)C1C(=O)NCc1ccccc1` (stereo unspecified) was tested, and the GI50 [1] was > 100 µM (inactive), the GI50 [17] was > 100 µM (inactive) and the GI50 [2] was > 100 µM (inactive). For the same molecule, the GI50 [3] was > 100 µM (inactive), the GI50 [4] was > 100 µM (inactive) and the GI50 [5] was > 100 µM (inactive). For the same molecule, the GI50 [6] was > 100 µM (inactive), the GI50 [7] was > 100 µM (inactive) and the GI50 [8] was > 100 µM (inactive). The GI50 [9] was over 100 µM, the GI50 [10] was > 100 µM (inactive) and the GI50 [11] was > 100 µM (inactive). The GI50 [12] was > 100 µM (inactive).
In the case of `COCC(=O)CP(=O)(OC)OC`, the GI50 [1] is reported as > 100 µM (inactive), the GI50 [17] is reported as > 100 µM (inactive) and the GI50 [2] is reported as > 100 µM (inactive). The GI50 [3] was > 100 µM (inactive), the GI50 [4] was > 100 µM (inactive) and the GI50 [5] was > 100 µM (inactive). The GI50 [6] was > 100 µM (inactive), the GI50 [8] was > 100 µM (inactive) and the GI50 [9] was over 100 µM. The GI50 [10] was > 100 µM (inactive), the GI50 [11] was > 100 µM (inactive) and the GI50 [12] was > 100 µM (inactive). The GI50 [13] was > 100 µM (inactive) and the GI50 [14] was > 100 µM (inactive).
In the case of `COc1cc2c(cc1OC)[C@]1(O)C(=O)c3ccc4c(c3O[C@@H]1CO2)C[C@H](C(C)(C)O)O4`, the GI50 [17] is reported as 8.3 µM (inactive), the GI50 [2] is reported as 56.1 µM (inactive) and the GI50 [3] is reported as > 100 µM (inactive). The GI50 [4] was 5.86 µM (inactive), the GI50 [5] was > 100 µM (inactive) and the GI50 [6] was > 100 µM (inactive). The GI50 [7] was > 100 µM (inactive), the GI50 [8] was > 100 µM (inactive) and the GI50 [11] was > 100 µM (inactive). The GI50 [12] was 24.9 µM (inactive) and the GI50 [14] was 22 µM (inactive).
For `C=C1CC[C@@]2(OC1)OC1C[C@H]3[C@@H]4CC=C5C[C@@H](O)CC(OC6OCC(OC(=O)[C@@H](O)[C@@H](C)CC)C(OC(C)=O)C6OC6OC(C)C(O)C(O)C6O)[C@]5(C)[C@H]4CC[C@]3(C)C1[C@@H]2C` (stereo partly specified), the GI50 [15] was 1.92 µM (inactive), the GI50 [16] was 1.84 µM (inactive) and the GI50 [1] was 2.06 µM (inactive). The GI50 [17] was 1.93 µM (inactive), the GI50 [18] was 2.32 µM (inactive) and the GI50 [3] was 2.82 µM (inactive). For the same molecule, the GI50 [19] was 1.67 µM (inactive), the GI50 [4] was 1.76 µM (inactive) and the GI50 [5] was 1.75 µM (inactive). For the same molecule, the GI50 [6] was 2.56 µM (inactive), the GI50 [7] was 1.6 µM (inactive) and the GI50 [8] was 1.77 µM (inactive). For the same molecule, the GI50 [9] was 1.91 µM, the GI50 [20] was 2.07 µM (inactive) and the GI50 [10] was 1.75 µM (inactive). The GI50 [11] was 2.31 µM (inactive), the GI50 [12] was 1.81 µM (inactive) and the GI50 [13] was 2.65 µM (inactive). For the same molecule, the GI50 [14] was 2 µM (inactive).
With `COc1ccc(N2C(=O)C3c4[nH]c5ccc(OCc6ccccc6)cc5c4C4CCC(c5ccccc5)CC4C3C2=O)cc1` (stereo unspecified) the GI50 [15] was 22.6 µM (inactive), the GI50 [16] was 29.6 µM (inactive) and the GI50 [1] was 6.85 µM (inactive). The GI50 [17] was 6.49 µM (inactive), the GI50 [18] was 18.8 µM (inactive) and the GI50 [3] was 11 µM (inactive). The GI50 [19] was 8.53 µM (inactive), the GI50 [4] was 7.43 µM (inactive) and the GI50 [5] was 2.54 µM (inactive). For the same molecule, the GI50 [6] was 8.85 µM (inactive), the GI50 [7] was 4.84 µM (inactive) and the GI50 [8] was 6.95 µM (inactive). The GI50 [9] was 11.6 µM, the GI50 [20] was 8.07 µM (inactive) and the GI50 [10] was 11 µM (inactive). For the same molecule, the GI50 [11] was 3.01 µM (inactive), the GI50 [12] was 0.34 µM (active) and the GI50 [13] was 8.18 µM (inactive). For the same molecule, the GI50 [14] was 7.82 µM (inactive).
